The source of these data is US12188040B2, “Method for enhancing gene expression using AAV vector” (priority 2018, dated 2025).

Molecules are shown by their SMILES. Several values for one entry are separate records, joined by “and”; a condition that tells them apart may be missing. Equal entries are not always repeated. Where two headings read alike, the source gives them in different places.

The test system of this assay is HEK293 cells. To be noted: for D/L ratio of expression intensity: 132 mM; for Effect of enhancement compared among the sugars: monosaccharides 100 or 200 mM; for GFP intensity: Exp 2, AAV3B 6×10^7 vg/well, iso-osmotic additives: sucrose 125.0, glucose 132.3, mannitol 132.3, NaCl 71.5 mM. As to the method:
As the first procedure, 4 methods of the addition were carried out, including adding sucrose immediately (5 minutes or less) after the administration of the AAV vector, and the administration of the AAV vector immediately (5 minutes or less) after, 10 minutes after or 1 hour after adding sucrose to cells.
In the same manner as the above-described procedure, the GFP expression level was measured 3 days later.
In the same manner as the above-described procedures, the GFP expression level was measured 3 days later.
AAV3B-CMV-AcGFP was mixed in advance with sucrose at each of various concentrations, and the mixture was allowed to stand at room temperature for 1 hour followed by administration to cells. […] In order to prevent cell damage due to a buffer at the time of dilution of sucrose, medium replacement was carried out using a sucrose solution having the same concentration that was prepared by the medium 3 hours after the administration.

[1] abbreviates: Exp 5, AAV3B 1×10^8 vg/well premixed 1 h, glucose 132 mM final, Day 1.
The mark [2] stands for this setting: Exp 5, AAV3B 1×10^8 vg/well premixed 1 h, glucose 132 mM final, Day 2.
[3] abbreviates: Exp 5, AAV3B 1×10^8 vg/well premixed 1 h, glucose 132 mM final, Day 3.
Setting [4] is: Exp 9, monosaccharide 100 mM, 3 days.
The mark [5] stands for this setting: Exp 9, monosaccharide 100 mM, AAV3B 1×10^8 vg/well premixed 1 h, 3 days.
Where [6] appears, read: Exp 9, monosaccharide 200 mM, 3 days.
[7] abbreviates: Exp 9, monosaccharide 200 mM, AAV3B 1×10^8 vg/well premixed 1 h, 3 days.
Setting [8] is: Exp 8, disaccharide 100 mM in medium, AAV3B 1×10^8 vg/well, Day 3.
The mark [9] stands for this setting: Exp 8, disaccharide 100 mM, Day 3.
[10] abbreviates: Exp 8, disaccharide 125 mM in medium, AAV3B 1×10^8 vg/well, Day 3.
The mark [11] stands for this setting: Exp 8, disaccharide 125 mM, Day 3.
The mark [12] stands for this setting: Exp 8, disaccharide 150 mM in medium, AAV3B 1×10^8 vg/well, Day 3.
Where [13] appears, read: Exp 8, disaccharide 150 mM, AAV3B 1×10^8 vg/well, Day 1.
Setting [14] is: Exp 8, disaccharide 150 mM, AAV3B 1×10^8 vg/well, Day 2.
The mark [15] stands for this setting: Exp 8, disaccharide 150 mM, AAV3B 1×10^8 vg/well, Day 6.
Where [16] appears, read: Exp 8, disaccharide 150 mM, Day 3.

On to `O=C[C@H](O)[C@@H](O)[C@H](O)[C@H](O)CO` [D-Glucose, D-glucose], for which the “D/L ratio of expression intensity” value is 1.5 times (Exp 5, Day 1); 1.8 (Exp 5, Day 2); 2.1 times (Exp 5, Day 3). In addition, the “Fluorescence Intensity” value by setting is: under setting [1], 161.0; under setting [2], 1232.5; under setting [3], 2966.3.
Consider `O=C(CO)[C@@H](O)[C@H](O)[C@H](O)CO` [Fructose, fructose], for which the “Relativeness (vs (−))” value reads like this: under setting [4], 2.7; under setting [6], 16.2 times. Moreover, the “Fluorescence Intensity” value by setting is: under setting [5], 402.0; under setting [7], 2378.5. Moreover, the “Effect of enhancement compared among the sugars” value (Exp 9, 3 days) is “comparable to that of sucrose”.
Consider `O=C[C@H](O)[C@@H](O)[C@@H](O)[C@H](O)CO` [Galactose, galactose], for which the “Relativeness (vs (−))” value is given as 1.3 under setting [4] and 4.0 times under setting [6]. In addition, the “Fluorescence Intensity” value reads like this: under setting [5], 189.5; under setting [7], 583.5. Further, the “Effect of enhancement compared among the sugars” value (Exp 9, 3 days) is listed as “lower than those of the other sugars”.
Regarding `O=C[C@@H](O)[C@H](O)[C@@H](O)[C@@H](O)CO` [L-Glucose, L-glucose, reference compound], the “Fluorescence Intensity” value by setting is: under setting [1], 104.7; under setting [2], 669.2; under setting [3], 1397.7. In addition, for the setting “Exp 5, glucose 132 mM final, Day 1”, the “Relativeness (vs Glucose(−))” value is 11 times and 11.0 times.
As to `OC[C@H]1O[C@@H](O[C@H]2[C@H](O)[C@@H](O)C(O)O[C@@H]2CO)[C@H](O)[C@@H](O)[C@H]1O` (some centres unmarked) [Lactose, lactose], the “Fluorescence Intensity” value under setting [8] is listed as 1189.0; the “Fluorescence Intensity” value under setting [10] was 1880.3; the “Fluorescence Intensity” value under setting [12] is listed as 3606.8; the “Fluorescence Intensity” value under setting [13] turned out to be 503.2; the “Fluorescence Intensity” value under setting [14] turned out to be 2097.0; the “Fluorescence Intensity” value under setting [15] is on record as 10798.2. Moreover, the “Relativeness (vs No Sugar)” value was 2.0 under setting [9] and 3.1 under setting [11].
In the case of `OC[C@H]1O[C@H](O[C@H]2[C@H](O)[C@@H](O)[C@H](O)O[C@@H]2CO)[C@H](O)[C@@H](O)[C@@H]1O` [Maltose, maltose], the “Fluorescence Intensity” value was 1158.0 under setting [8]; 1833.5 under setting [10]; 3281.8 under setting [12]; 532.7 under setting [13]; 2009.0 under setting [14]. In addition, the “Relativeness (vs No Sugar)” value under setting [9] came out at 1.9, the “Relativeness (vs No Sugar)” value under setting [11] is reported as 3.0 and the “Relativeness (vs No Sugar)” value under setting [16] came to 5.4.
For the setting “3 days”, `OC[C@@H](O)[C@@H](O)[C@H](O)[C@H](O)CO` [Mannitol, mannitol, reference compound] came in with a GFP intensity of 342.8.
Where the note is “3 days”, `[Cl-].[Na+]` [NaCl, reference compound] registered a GFP intensity of 2.5.
As for `OC[C@H]1O[C@H](O[C@H]2O[C@H](CO)[C@@H](O)[C@H](O)[C@H]2O)[C@H](O)[C@@H](O)[C@@H]1O` [Trehalose, trehalose], the “Fluorescence Intensity” value was 995.7 under setting [8]; 1249.0 under setting [10]; 1903.7 under setting [12]; 230.7 under setting [13]; 949.8 under setting [14]; 6490.7 under setting [15]. In addition, the “Relativeness (vs No Sugar)” value worked out at 1.6 under setting [9], 2.1 under setting [11] and 3.1 under setting [16].
